“And” between values parts separate entries of the source, which are not always exact repeats. Identical values can stand only once. Like-named read-outs stand apart in the source and are kept apart here.
Legend:
[1] = Lipophilicity as RM values by reversed-phase thin-layer chromatography (RP-TLC); assay type: physicochemical
Description: In this study, the lipophilicity of the synthesized trimetazidine–profen derivatives was evaluated using a practical and widely applied technique—reversed-phase thin-layer chromatography (RP-TLC)—following the methodology outlined by Pontiki and Hadjipavlou-Litina.
The lipophilicity of the trimetazidine–profen derivatives was determined following the procedure described by Pontiki and Hadjipavlou-Litina.

[2] = Acute rat toxicity prediction using GUSAR software
Excerpt: Given the potential toxicity concerns associated with both trimetazidine and profens, including rare gastrointestinal, hepatic, renal, and central nervous system effects, we evaluated the acute toxicity of the newly synthesized trimetazidine–profen hybrid molecules.
GUSAR software was developed to generate QSAR/QSPR models using appropriate training datasets. It enables an in silico prediction of LD50 values in rats for four routes of administration: oral, intravenous, intraperitoneal, and subcutaneous.
We employed the software to perform quantitative in silico predictions of the LD50 values for the synthesized trimetazidine–profen hybrids 3a–e.

[3] = Hydroxyl radical scavenging activity (HRSA), Fenton reaction / 1,10-phenanthroline; assay type: biochemical; settings: IC50 ± SD, triplicate; 60 min at 37 °C, pH 7.40
Description: The hydroxyl radical-scavenging activity of the samples was measured according to the method of Luo et al.. In this system, hydroxyl radicals were generated by the Fenton reaction. Hydroxyl radicals could oxidize Fe^2+ into Fe^3+, and only Fe^2+ could be combined with 1,10-phenanthroline to form a red compound (1,10-phenanthroline-Fe^2+) with a maximum absorbance at 536 nm. The concentration of the hydroxyl radical was reflected by the degree of decolorization of the reaction solution. In test tubes 1 mL of 1,10-phenanthroline solution (0.75 mM), 2.0 mL of phosphate buffer saline (0.2 M, pH 7.40), and 1 mL of the samples/standard were added and mixed homogeneously. A total of 1.0 mL of the FeSO4 solution (0.75 mM) was then pipetted into the mixture. The reaction was initiated by adding 1.0 mL H2O2 (0.03% v/v). After incubation at 37°C for 60 min in a water bath, the absorbance of the reaction mixture was measured at 536 nm against reagent blank. The reaction mixture without any antioxidant was used as the negative control, and without H2O2 was used as the blank. The hydroxyl radical scavenging activity (HRSA) was calculated by the following formula:(2) I,%(HRSA)=AS−An/Ab−An×100 where As, An, and Ab were the absorbance values determined at 536 nm of the sample, the negative control, and the blank after reaction, respectively.

[4] = Hydrogen peroxide scavenging activity (HPSA); assay type: biochemical; settings: IC50 ± SD, triplicate; 10 min at 37 °C, pH 7.4
Description: The Manolov et al. approach was used to evaluate a capacity to scavenge hydrogen peroxide. A 43 mM solution of H2O2 was prepared in a potassium phosphate buffer solution (0.2 M, pH 7.4). The analysis of the samples was carried out as follows: in test tubes, 0.6 mL H2O2 (43 mM), 1 mL sample/standard with different concentrations (20–1000 µg/mL), and 2.4 mL potassium phosphate buffer solution were mixed. The mixture was stirred and incubated in the dark for 10 min at 37 °C. Absorbance was measured at 230 nm with a spectrophotometer (CamSpec M508, Leeds, UK) against a blank solution containing the phosphate buffer and H2O2 without the sample. […] The percentage HPSA of the samples was evaluated by comparing with a blank sample, and was calculated using the following formula:(1) I,%(HPSA)=Ablank−(ATS−ACS)/Ablank×100 where Ablank is the absorbance of the blank sample, ACS is the absorbance of the control sample, and ATS is the absorbance of the test sample.

[5] = molecular target: T1, human albumin (Homo sapiens, UniProt P02768); assay: Inhibition of albumin denaturation (IAD); assay type: biochemical
T1 construct: purchased BB-NCIPD Ltd., Sofia, Bulgaria
T1 sequence (P02768 25-609): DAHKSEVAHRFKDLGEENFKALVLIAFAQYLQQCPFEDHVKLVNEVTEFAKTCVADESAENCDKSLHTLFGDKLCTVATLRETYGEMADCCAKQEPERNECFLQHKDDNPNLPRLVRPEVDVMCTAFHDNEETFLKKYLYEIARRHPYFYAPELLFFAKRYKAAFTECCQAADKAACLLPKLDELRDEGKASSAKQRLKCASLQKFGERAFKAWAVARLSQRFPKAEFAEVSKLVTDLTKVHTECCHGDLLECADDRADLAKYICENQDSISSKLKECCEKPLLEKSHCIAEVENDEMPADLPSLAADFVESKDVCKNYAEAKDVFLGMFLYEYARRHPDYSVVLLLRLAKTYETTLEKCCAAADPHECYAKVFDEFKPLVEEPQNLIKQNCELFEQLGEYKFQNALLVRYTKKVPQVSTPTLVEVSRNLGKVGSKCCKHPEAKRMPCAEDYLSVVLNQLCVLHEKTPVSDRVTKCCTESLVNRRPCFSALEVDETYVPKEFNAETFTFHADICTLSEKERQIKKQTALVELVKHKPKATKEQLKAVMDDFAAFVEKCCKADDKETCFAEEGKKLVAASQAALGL
Description: The in vitro analysis of the anti-inflammatory activity was evaluated by measuring the inhibition of albumin denaturation (IAD). The analysis was carried out according to the method of Manolov et al. with minor modifications. The experiment was conducted using human albumin. A 1% albumin solution was prepared in distilled water at pH 7.4. Test samples and standards were initially dissolved in 1 mL of DMSO, then supplemented with 1% Tween 80 in PBS to achieve a final stock solution concentration of 1000 μg/mL. Subsequently, a series of working solutions at varying concentrations (20–500 μg/mL) in 1% Tween 80/PBS were prepared. The reaction mixture consisted of 2 mL of the test sample or standard at varying concentrations and 1 mL of 1% albumin. The mixture was incubated at 37 °C for 15 min, followed by heating at 70 °C for 15 min in a water bath. After cooling, the turbidity was measured at 660 nm using a spectrophotometer (CamSpec M508, Leeds, UK). Ibuprofen served as the standard. The experiment was conducted in triplicate. The percentage inhibition of albumin denaturation (IAD) was calculated against the control. The control sample consisted of albumin at the same concentration dissolved in distilled water.(3) %IAD=Ablank−Asample/Ablank×100

[6] = composite across IP, IV, oral, SC GUSAR predictions, lower = more toxic, read-out: geometric mean of the four LD50 values

Row | SMILES | RM ± SD [1] | LD50 [2, 6] [mg/kg] | HRSA IC50 [3] | HPSA IC50 [4] [µg/mL] | IC50 [5] [µM] | LD50 [2] [mg/kg]
1 | CC(C)Cc1ccc(C(C)C(=O)O)cc1 (stereo not drawn) [Ibuprofen, reference compound] | 1.11 ± 0.01 | – | – | – | – | –
2 | COc1ccc(CN2CCN(C(=O)C(C)c3cccc(C(=O)c4ccccc4)c3)CC2)c(OC)c1OC (stereo not drawn) [3b, 2-(3-benzoylphenyl)-1-(4-(2,3,4-trimethoxybenzyl)piperazin-1-yl)propan-1-one] | 1.55 ± 0.015 and 1.55 | ~398 | 74.72 ± 0.41 µg/mL and 74.6 to 74.7 µg/mL | 93.56 ± 1.29 | 234 | –
3 | COc1ccc(CN2CCN(C(=O)C(C)c3ccc(-c4ccccc4)c(F)c3)CC2)c(OC)c1OC (stereo not drawn) [3d, 2-(2-fluoro-[1,1’-biphenyl]-4-yl)-1-(4-(2,3,4-trimethoxybenzyl)piperazin-1-yl)propan-1-one] | 1.45 ± 0.008 and 1.45 | ~287 | 74.59 ± 1.02 µg/mL and 74.6 to 74.7 µg/mL | 135.25 ± 13.19 | 235 | –
4 | COc1ccc(CN2CCN(C(=O)C(C)c3ccc4c(c3)[nH]c3ccc(Cl)cc34)CC2)c(OC)c1OC (stereo not drawn) [3e, 2-(6-chloro-9H-carbazol-2-yl)-1-(4-(2,3,4-trimethoxybenzyl)piperazin-1-yl)propan-1-one] | 1.55 ± 0.016 and 1.55 | ~369 | 92.56 µg/mL | 99.75 ± 0.75 | 225 | –
5 | COc1ccc(CN2CCNCC2)c(OC)c1OC [compound 1, 1-[(2,3,4-trimethoxyphenyl)methyl]piperazine, reference compound] | – | – | – | – | – | ~246
6 | COc1ccc(CN2CCN(C(=O)C(C)c3ccc(CC(C)C)cc3)CC2)c(OC)c1OC (stereo not drawn) [3a, 2-(4-isobutylphenyl)-1-(4-(2,3,4-trimethoxybenzyl)piperazin-1-yl)propan-1-one] | 1.68 ± 0.021 and 1.68 | ~212 | 77.98 µg/mL | 97.55 ± 1.21 | 244 | –
7 | COc1ccc2cc(C(C)C(=O)N3CCN(Cc4ccc(OC)c(OC)c4OC)CC3)ccc2c1 (stereo not drawn) [3c, 2-(6-methoxynaphthalen-2-yl)-1-(4-(2,3,4-trimethoxybenzyl)piperazin-1-yl)propan-1-one] | 1.61 ± 0.020 and 1.61 | ~391 | 71.13 µg/mL | 93.07 ± 0.43 | 227 | –

Reference: publication PMC12472577, “Trimetazidine–Profen Hybrid Molecules: Synthesis, Chemical Characterization, and Biological Evaluation of Their Racemates” (Pharmaceuticals, 2025)
